Tests used:
[1] = tested on: non-transformed iris cells; assay: Evaluation of selection agents: growth suppression of non-transformed iris suspension-cultured cells on MS-C medium; format: cell-based, Iris germanica; details: for inhibition of cell growth scored visually: preliminary experiments, five concentrations
Experimental: Evaluation of selection agents. […] To determine the efficacy of several commonly used agents for selecting transformed iris cells, the following substances were tested: five antibiotics (methotrexate, hygromycin, geneticin (G418), gentamycin, and phleomycin); three herbicides (glyphosate [N-(Phosphonomethyl)glycine] (Monsanto, St. Louis, Mo.), chlorsulfuron [2-Chloro-N-[[(methoxy-6-methyl-1,3,5-triazin-2-yl)amino]carbonyl]benzenesulfonamide] (E.I. Du Pont de Nemours & Co., Inc., Agricultural Products Dept., Wilmington, Del.) and glufosinate-ammonium (Basta; Hoechst Canada, Inc., Regina, Saskatchewan, Canada)); and one amino acid analog (4-methyl-tryptophan) (Sigma).
The liquid MS-L medium was removed from a three-week-old iris suspension culture and the cells spread on Whatman No. 1 filter papers (42.5 mm diameter) in small culture plates (60 mm×15 mm), over MS-C medium [MS-L medium with 3 g·L^−1 Phytagel (Sigma Chem. Co., St. Louis, Mo.), as described in Examples 1 and 2] containing increasing amounts of the selection agent. Plates were incubated for three weeks in the dark at 25° C. In preliminary experiments, five concentrations of each selection agent were tested and inhibition of cell growth was scored visually.
Fresh weights of resultant tissue were measured and mean values, expressed as a percentage of growth by controls (no selection agent). At least five plates were used for each concentration of selection agent.

[2] = tested on: suspension-cultured cells of Iris germanica; assay: Effect of Kin and NAA in MS-I medium on regeneration potential of differentiated clumps; format: cell-based; details: 6 weeks on MS-D with 1.25 μM BA
Experimental: Effect of Kin and NAA, a/one and in combination, in MS-I medium. To induce plant morphogenesis from suspension-cultured cells, 16 different combinations of NAA (0.0, 0.5, 2.5, and 12.5 μM) and Kin (0.0, 2.5, 12.5, and 62.5 μM) were evaluated. A 0.5-mL aliquot of the resuspended cells was inoculated on each 15×60 mm plastic plate containing 20 mL MS-I medium with different combinations of Kin and NAA. The cells were spread with a spoon-like spatula to form a uniform layer on the surface of MS-I medium. The plates were sealed with Parafilm® and incubated in the dark at 25° C. The number of differentiated clumps was recorded after five weeks. The clumps were collected and grouped into four size classes: large (>10 mm), medium (5 to 10 mm), small (2 to 5 mm) and very small (<2 mm). The regeneration potential of differentiated clumps was assessed by randomly sampling 30 to 60 clumps from each size class and transferring them to three to six Magenta GA-7 vessels (Sigma Chem. Co., St. Louis, Mo.) containing 50 mL of MS-D medium (Table 1) supplemented with 1.25 μM BA. They were then incubated under light (50 μmol m^−2 s^−1) at 23° C. for six weeks. The total number of regenerating clumps (i.e., differentiated clumps that continued to grow and develop on MS-D medium) was counted, and percentages of regenerating clumps that developed shoots only or plantlets (rooted shoots derived from somatic embryos) were recorded. The regenerated shoots and plantlets were transferred to MS-R medium (Table 1) to promote root development. Each Kin/NAA combination was evaluated in five plates per experiment; the entire experiment was repeated three times.

[3] = tested on: leaf samples from non-transformed iris plants; assay: Leaf-bleach assay with paromomycin; design: species or system Iris germanica; details: 200 mg·L^−1 paromomycin; leaf samples from control (non-transgenic) plants; five days
Experimental: Functional assay of NPTII genes. To test the NPTII expression in transformed iris plants, the leaf-bleach assay was carried out according to Cheng et al. (Plant Physiol., 115:971-980, 1997), with minor modifications described below. Four pieces (≈7-mm) were cut from the second youngest leaf of each plant approximately one month after establishment in growing medium in the greenhouse. One leaf piece was placed in 1 mL of solution containing 25 mg·L^−1 benomyl fungicide [methyl 1-(butylcarbamoyl)-2 benzimidazolecarbamate] (Hi-Yield Chem. Co., Bonham, Tex.) and 0.01% Triton X-100 (Sigma), in a well of 24-well culture plate, as a control. Each of the remaining three pieces were placed in 1 mL of the same solution with either 50, 100, or 200 mg·L^−1 paromomycin (Sigma). Leaf samples from the non-transformed iris plants at a similar developmental stage were used as a negative control. The samples were vacuum-infiltrated for 10 minutes. The plates were then sealed with Parafilm and incubated for five days at 23° C. with a 16 hours photoperiod of 50 μmol·m^−2·s^−1 provided by cool-white fluorescent lamps. In preliminary assays, G418 and hygromycin were also tested, the latter for the functional expression of the hpt gene. The response to all three antibiotics was very similar, so paromomycin was selected to assay the rest of the putative transgenic iris plants because it was least expensive.

[4] = 0.5 μM in MS-I medium (main effect)
[5] = 2.5 μM in MS-I medium (main effect)
[6] = 12.5 μM in MS-I medium (main effect)
[7] = 62.5 μM in MS-I medium (main effect)

How did the inhibition at 0.05 µg/mL ([1]; Iris germanica, 504 h, 0.05 mg·L^−1, three weeks on MS-C medium, read-out: cell growth inhibited) turn out when CN(Cc1cnc2nc(N)nc(N)c2n1)c1ccc(C(=O)N[C@@H](CCC(=O)O)C(=O)O)cc1 [methotrexate] was run?
Its inhibition at 0.05 µg/mL is about 80%.

O=C(O)Cc1cccc2ccccc12 [NAA, 1-naphthaleneacetic acid] was tested. Which “Regenerating clumps (%)” value [2, 4] did it give?
The value was 56%.

And the “Regenerating clumps developing PLANTLETS (%)” value [2, 4]?
Its value is 94%.

And the “Regenerating clumps developing SHOOTS ONLY (%)” value [2, 4]?
The value was 6%.

And the “Regenerating clumps (%)” value [2, 5]?
Its value is 55%.

And the “Regenerating clumps developing PLANTLETS (%)” value [2, 5]?
The value was 89%.

And the “Regenerating clumps developing SHOOTS ONLY (%)” value [2, 5]?
The value was 11%.

And the “Regenerating clumps (%)” value [2, 6]?
The value was 33%.

What about the “Regenerating clumps developing PLANTLETS (%)” value [2, 6] of the same compound?
The value was 94%.

And the “Regenerating clumps developing SHOOTS ONLY (%)” value [2, 6]?
The value was 7%.

With CP(=O)(O)CCC(N)C(=O)O (centres unmarked) [Basta, glufosinate-ammonium] as the compound, how does the inhibition at 10 µg/mL ([1]; Iris germanica, 504 h, read-out: cell growth inhibited) read?
Its inhibition at 10 µg/mL is about 70%.

How did the leaf bleaching [3] turn out when NC[C@@H]1O[C@H](O[C@H]2[C@@H](O)[C@H](O[C@@H]3[C@@H](O)[C@H](N)C[C@H](N)[C@H]3O[C@H]3O[C@H](CO)[C@@H](O)[C@H](O)[C@H]3N)O[C@@H]2CO)[C@H](N)[C@@H](O)[C@@H]1O [paromomycin] was run?
Its leaf bleaching is “almost completely bleached”.

With gentamycin as the compound, how does the “inhibition of cell growth scored visually” value [1] read?
The value was “did not clearly inhibit growth”.

Which inhibition at 0.5 µg/mL ([1]; Iris germanica, 504 h, 0.5 mg·L^−1, three weeks on MS-C medium, read-out: cell growth inhibited) does the source give for COc1nc(C)nc(NC(=O)NS(=O)(=O)c2ccccc2Cl)n1 [chlorsulfuron, 2-Chloro-N-[[(methoxy-6-methyl-1,3,5-triazin-2-yl)amino]carbonyl]benzenesulfonamide] here?
The inhibition at 0.5 µg/mL was about 90%.

How did the “inhibition of cell growth scored visually” value [1] turn out when phleomycin was run?
The value was “did not clearly inhibit growth”.

How did the “inhibition of cell growth scored visually” value [1] turn out when Cc1cccc2[nH]cc(C[C@H](N)C(=O)O)c12 [4-methyl-tryptophane, 4-methyl-tryptophan] was run?
The value was “did not clearly inhibit growth”.

For O=C(O)CNCP(=O)(O)O [glyphosate, N-(Phosphonomethyl)glycine], which “inhibition of cell growth scored visually” value [1] is on record?
The value was “did not clearly inhibit growth”.

With c1coc(CNc2ncnc3[nH]cnc23)c1 [KIN, kinetin] as the compound, how does the “Regenerating clumps (%)” value [2, 5] read?
The value was 41%.

What about the “Regenerating clumps developing PLANTLETS (%)” value [2, 5] of the same compound?
Its value is 96%.

What about the “Regenerating clumps developing SHOOTS ONLY (%)” value [2, 5] of the same compound?
Its value is 5%.

What about the “Regenerating clumps (%)” value [2, 6] of the same compound?
Its value is 44%.

What about the “Regenerating clumps developing PLANTLETS (%)” value [2, 6] of the same compound?
The value was 89%.

And the “Regenerating clumps developing SHOOTS ONLY (%)” value [2, 6]?
The value was 12%.

And the “Regenerating clumps (%)” value [2, 7]?
Its value is 45%.

And the “Regenerating clumps developing PLANTLETS (%)” value [2, 7]?
Its value is 88%.

What about the “Regenerating clumps developing SHOOTS ONLY (%)” value [2, 7] of the same compound?
The value was 12%.
